Among the data in patent US7176228B2, “Pyrazole biphenylcarboxamides” (Bayer Cropscience AG, priority 2000, dated 2007) are chromatographic logP values, retold here.

One may read the chromatographic logP as a lipophilicity value derived from retention on a column. A higher chromatographic logP goes with higher lipophilicity.

This data set is described as follows: logP determination by HPLC on a reversed-phase column (EEC Directive 79/831 Annex V.A8). Particulars: reversed-phase C18 HPLC column, reversed-phase column (C 18), 43° C., acidic range (a): 0.1% aqueous phosphoric acid, acetonitrile gradient 10% to 90%. The class given is physicochemical. Here is the method: [table] Calibration was carried out using unbranched alkan-2-ones (having 3 to 16 carbon atoms) with known logP values (determination of the logP values by the retention times using linear interpolation between two successive alkanones).

`CO/N=C/c1cccc(-c2ccccc2NC(=O)c2sc(C)nc2C(F)(F)F)c1` [Example 2] displayed a chromatographic logP of 3.42.

With `CCCCO/N=C\c1ccc(-c2ccccc2NC(=O)c2sc(C)nc2C(F)(F)F)cc1` [Example 3], the chromatographic logP came to 4.65.

For `Cc1nc(C(F)(F)F)c(C(=O)Nc2ccccc2-c2ccc(/C=N\OC(C)C)cc2)s1` [Example 5], the chromatographic logP worked out at 4.23.

Consider `CO/N=C\c1ccc(-c2ccccc2NC(=O)c2c(C)nn(C)c2Cl)cc1` [Example 17], for which the chromatographic logP worked out at 3.24.

Take `CO/N=C\c1ccc(-c2ccccc2NC(=O)c2cn(C)cc2C)cc1` [Example 19]: the chromatographic logP is 5.1.

In turn, `CCCCO/N=C/c1ccc(-c2ccccc2NC(=O)c2cn(C)nc2C(F)(F)F)cc1` [Example 22] returned a chromatographic logP of 4.26.

Consider `CCCO/N=C/c1ccc(-c2ccccc2NC(=O)c2sc(C)nc2C(F)(F)F)cc1` [Example 23], for which the chromatographic logP amounted to 4.26.

`CCCO/N=C/c1ccc(-c2ccccc2NC(=O)c2cn(C)nc2C(F)(F)F)cc1` [Example 28] returned a chromatographic logP of 3.86.

Take `Cc1nc(C(F)(F)F)c(C(=O)Nc2ccccc2-c2ccc(/C=N\O)cc2)s1` [Example 30]: the chromatographic logP came to 2.78.

`CO/N=C/c1ccc(-c2ccccc2NC(=O)c2sc(N(C)C)nc2C(F)(F)F)cc1` [Example 32] had a chromatographic logP of 3.84.

As for `CO/N=C/c1ccc(-c2ccccc2NC(=O)c2cccnc2OC)cc1` [Example 33], the chromatographic logP came to 4.12.

Consider `CO/N=C/c1ccc(-c2ccccc2NC(=O)c2ccc(OC)nc2OC)cc1` [Example 34], for which the chromatographic logP was determined as 4.73.

Turning to `CO/N=C/c1ccc(-c2ccccc2NC(=O)c2cccnc2C)cc1` [Example 35], the chromatographic logP is 2.04.

`CO/N=C/c1ccc(-c2ccccc2NC(=O)c2ccccc2C(F)(F)F)cc1` [Example 36] gave a chromatographic logP of 3.75.

On to `CO/N=C/c1ccc(-c2ccccc2NC(=O)c2sc(Cl)nc2C(F)(F)F)cc1` [Example 37], for which the chromatographic logP worked out at 4.08.

In the case of `CO/N=C/c1ccc(-c2ccccc2NC(=O)c2ccccc2Cl)cc1` [Example 38], the chromatographic logP is 3.59.

The compound `CO/N=C/c1ccc(-c2ccccc2NC(=O)c2ccccc2Br)cc1` [Example 39] came in with a chromatographic logP of 3.61.

In the case of `CO/N=C/c1ccc(-c2ccccc2NC(=O)c2ccccc2C)cc1` [Example 40], the chromatographic logP turned out to be 3.56.

`Cn1cc(C(=O)Nc2ccccc2-c2ccc(/C=N\O)cc2)c(C(F)(F)F)n1` [Example 41] gave a chromatographic logP of 3.19.

`CO/N=C/c1ccc(-c2ccccc2NC(=O)c2ccoc2C)cc1` [Example 42] registered a chromatographic logP of 3.47.

The compound `CO/N=C/c1cccc(-c2ccccc2NC(=O)c2ccoc2C)c1` [Example 43] gave a chromatographic logP of 3.47.

In turn, `CO/N=C/c1cccc(-c2ccccc2NC(=O)c2ccccc2C(F)(F)F)c1` [Example 44] had a chromatographic logP of 3.76.

In turn, `CO/N=C/c1ccc(-c2ccccc2NC(=O)c2ccccc2I)cc1` [Example 45] displayed a chromatographic logP of 3.73.

In turn, `CO/N=C/c1cccc(-c2ccccc2NC(=O)c2ccccc2I)c1` [Example 46] came in with a chromatographic logP of 3.73.

Compound `CO/N=C/c1ccc(-c2ccccc2NC(=O)c2sccc2C)cc1` [Example 47] displayed a chromatographic logP of 3.86.

Turning to `CO/N=C/c1cccc(-c2ccccc2NC(=O)c2sccc2C)c1` [Example 48], the chromatographic logP was determined as 3.84.

`CO/N=C/c1ccc(-c2ccccc2NC(=O)c2cn(C)nc2C(F)(F)F)cc1Cl` [Example 49] registered a chromatographic logP of 3.54.

The compound `CO/N=C\c1cc(-c2ccccc2NC(=O)c2cn(C)nc2C(F)(F)F)ccc1/C=N/OC` [Example 50] returned a chromatographic logP of 3.36.

`CO/N=C/c1ccc(-c2c(C)cccc2NC(=O)c2sc(C)nc2C(F)(F)F)cc1` [Example 51] gave a chromatographic logP of 3.78.

In turn, `CO/N=C/c1cccc(-c2ccccc2NC(=O)c2cn(C)nc2C(F)(F)F)c1` [Example 52] gave a chromatographic logP of 3.25.

As to `CO/N=C/c1ccc(-c2ccccc2NC(=O)C2=C(C)OCCS2)cc1` [Example 53], the chromatographic logP was determined as 3.75.

Turning to `CO/N=C/c1ccc(-c2ccccc2NC(=O)c2ccco2)cc1` [Example 54], the chromatographic logP came to 3.2.

The compound `CO/N=C/c1cccc(-c2ccccc2NC(=O)c2ccco2)c1` [Example 55] displayed a chromatographic logP of 3.2.

The compound `CO/N=C/c1ccc(-c2ccccc2NC(=O)c2sccc2Br)cc1` [Example 56] had a chromatographic logP of 4.39.

Compound `CO/N=C/c1cccc(-c2ccccc2NC(=O)c2sccc2Br)c1` [Example 57] displayed a chromatographic logP of 4.39.

Compound `CO/N=C/c1cccc(-c2ccccc2NC(=O)c2c(C)nn(C)c2Cl)c1` [Example 58] showed a chromatographic logP of 3.37.

`CO/N=C/c1cccc(-c2ccccc2NC(=O)C2=C(C)OCCS2)c1` [Example 59] gave a chromatographic logP of 3.64.

The compound `CO/N=C/c1ccc(-c2ccccc2NC(=O)c2sc(C)nc2C(F)F)cc1` [Example 60] displayed a chromatographic logP of 3.26.

Compound `CO/N=C/c1cccc(-c2ccccc2NC(=O)c2sc(C)nc2C(F)F)c1` [Example 61] came in with a chromatographic logP of 3.26.

Consider `CO/N=C/c1ccc(-c2ccccc2NC(=O)c2ccc(C(F)(F)F)o2)cc1` [Example 62], for which the chromatographic logP was found to be 3.99.

Compound `CO/N=C/c1cccc(-c2ccccc2NC(=O)c2ccc(C(F)(F)F)o2)c1` [Example 63] yielded a chromatographic logP of 4.02.

Compound `CO/N=C/c1ccc(-c2ccccc2NC(=O)c2cc(C)oc2C(F)(F)F)cc1` [Example 64] registered a chromatographic logP of 3.94.

In turn, `CO/N=C/c1cccc(-c2ccccc2NC(=O)c2cc(C)oc2C(F)(F)F)c1` [Example 65] came in with a chromatographic logP of 3.97.

As to `CO/N=C/c1ccc(-c2ccccc2NC(=O)c2cn(C)cc2C(C)C)cc1` [Example 66], the chromatographic logP stood at 3.82.

As for `CO/N=C/c1ccc(-c2ccccc2NC(=O)c2sc(Cl)nc2C)cc1` [Example 67], the chromatographic logP amounted to 3.75.

As to `CO/N=C/c1cccc(-c2ccccc2NC(=O)c2sc(Cl)nc2C)c1` [Example 68], the chromatographic logP was determined as 3.75.

In the case of `CO/N=C/c1cccc(-c2ccccc2NC(=O)c2nc(C)oc2C(F)(F)F)c1` [Example 70], the chromatographic logP is 4.45.

`CO/N=C/c1ccc(-c2ccccc2NC(=O)c2ccc(Br)o2)cc1` [Example 71]: the chromatographic logP stood at 3.78.

`CO/N=C/c1cccc(-c2ccccc2NC(=O)c2ccc(Br)o2)c1` [Example 72]: the chromatographic logP stood at 3.8.

In turn, `CO/N=C/c1cccc(-c2ccccc2NC(=O)c2sc(N(C)C)nc2C(F)(F)F)c1` [Example 73] registered a chromatographic logP of 4.

In turn, `CO/N=C/c1ccc(-c2ccccc2NC(=O)c2sc(C)nc2C(F)(F)F)cc1Cl` [Example 74] came in with a chromatographic logP of 3.95.

The compound `CCCCO/N=C(/C)c1ccc(-c2ccccc2NC(=O)c2sc(C)nc2C(F)(F)F)cc1` [Example 77] displayed a chromatographic logP of 4.77.

Regarding `CCc1nn(C)c(Cl)c1C(=O)Nc1ccccc1-c1ccc(/C=N/OC)cc1` [Example 95], the chromatographic logP was found to be 3.68.

`CCc1nn(C)c(Cl)c1C(=O)Nc1ccccc1-c1cccc(/C=N/OC)c1` [Example 96] gave a chromatographic logP of 3.72.

Turning to `CO/N=C/c1ccc(-c2ccccc2NC(=O)c2c(C3CC3)nn(C)c2Cl)cc1` [Example 97], the chromatographic logP was 3.76. This chromatographic logP and that of the compound before are within 0.2 log units of each other.

In the case of `CO/N=C/c1cccc(-c2ccccc2NC(=O)c2c(C3CC3)nn(C)c2Cl)c1` [Example 98], the chromatographic logP amounted to 3.81.

`CO/N=C/c1ccc(-c2ccccc2NC(=O)c2cc(Cl)sc2Cl)cc1` [Example 99] had a chromatographic logP of 4.67.

`CO/N=C/c1cccc(-c2ccccc2NC(=O)c2cc(Cl)sc2Cl)c1` [Example 100] returned a chromatographic logP of 4.72. This chromatographic logP and that of the compound before are within 0.2 log units of each other.

For the compound `CO/N=C/c1ccc(-c2ccccc2NC(=O)c2ccc([N+](=O)[O-])o2)cc1` [Example 101], the chromatographic logP was found to be 3.26.

In turn, `CO/N=C/c1cccc(-c2ccccc2NC(=O)c2ccc([N+](=O)[O-])o2)c1` [Example 102] gave a chromatographic logP of 3.26.

For `CCn1nc(C)c(C(=O)Nc2ccccc2-c2ccc(/C=N/OC)cc2)c1Cl` [Example 103], the chromatographic logP worked out at 3.87.

The compound `CO/N=C/c1ccc(-c2ccccc2NC(=O)c2ccsc2)cc1` [Example 108] gave a chromatographic logP of 3.1.

Take `CO/N=C/c1ccc(-c2ccccc2NC(=O)c2ccsc2C)cc1` [Example 110]: the chromatographic logP is 3.58.

As for `CO/N=C/c1cccc(-c2ccccc2NC(=O)c2ccsc2C)c1` [Example 111], the chromatographic logP was determined as 3.59. This chromatographic logP and that of the compound before are within 0.2 log units of each other.

For `CO/N=C/c1ccc(-c2ccccc2NC(=O)c2cn(C)nc2C(F)(F)F)cc1F` [Example 112], the chromatographic logP turned out to be 3.21.

In the case of `CO/N=C/c1ccc(-c2ccccc2NC(=O)c2cccnc2O)cc1` [Example 113], the chromatographic logP was 2.43.

For the compound `CO/N=C/c1ccc(-c2ccccc2NC(=O)c2cn(C)nc2C(F)F)cc1F` [Example 114], the chromatographic logP worked out at 3.

On to `CCCO/N=C/c1ccc(-c2ccccc2NC(=O)c2c(C)nn(C)c2Cl)cc1` [Example 118], for which the chromatographic logP was found to be 4.22.
